Laboratory results from patent US20260209250A1, “CRYSTAL FORM OF KRAS G12D INHIBITOR AND PREPARATION METHOD THEREFOR” (priority 2022, published 2026).

Assays:
[1] = Crystal form stability study (influencing factor experiments); format: physicochemical; conditions: for Physical and chemical properties (conclusion of influencing factor experiments): high temperatures and high humidities for 30 days
Experimental: Samples of the crystal forms A, B, C, I, J, and K of the compound represented by formula (I) were taken, spread in open containers, and left to stand under conditions of light exposure (4500 Lux), high temperatures (40° C. and 60° C.), and high humidities (RH 75% and RH 92.5%) for 30 days to investigate their stability, and the results are shown in Table 16.

[2] = Long-term/accelerated stability; format: physicochemical
[3] = 40° C., 10 days, open container
[4] = 40° C., 30 days, open container
[5] = 60° C., 10 days, open container
[6] = 60° C., 30 days, open container
[7] = 75% RH, 10 days, open container
[8] = 75% RH, 30 days, open container
[9] = 92.5% RH, 5 days, open container
[10] = 92.5% RH, 10 days, open container
[11] = 92.5% RH, 30 days, open container
[12] = light exposure (4500 Lux), 5 days, open container
[13] = light exposure (4500 Lux), 10 days, open container
[14] = light exposure (4500 Lux), 30 days, open container

SMILES: CCc1c(F)ccc2cc(O)cc(-c3nc4c5c(nc(OC[C@@]67CCCN6C[C@H](F)C7)nc5c3F)N3C[C@H]5CC[C@H](N5)[C@H]3CO4)c12 [Crystal form K, 5-Ethyl-6-fluoro-4-((5aS,6S,9R)-1-fluoro-12-(((2R,7aS)-2-fluorotetrahydro-1H-pyrrolizin-7a(5H)-yl)methoxy)-5a,6,7,8,9,10-hexahydro-5H-4-oxa-3,10a,11,13,14-pentaaza-6,9-methanonaphtho[1,8-ab]heptalen-2-yl)naphthalen-2-ol]
- Color and state ([1]; 40° C., 5 days, open container): Off-white solid
- Crystal form ([1]; 40° C., 5 days, open container): Did not change
- Purity % ([1]; 40° C., 5 days, open container): 99.2%
- Color and state [1, 3]: Off-white solid
- Crystal form [1, 3]: Did not change
- Purity % [1, 3]: 98.5%
- Color and state [1, 4]: Off-white solid
- Crystal form [1, 4]: Did not change
- Purity % [1, 4]: 97.0%
- Color and state ([1]; 60° C., 5 days, open container): Off-white solid
- Crystal form ([1]; 60° C., 5 days, open container): Did not change
- Purity % ([1]; 60° C., 5 days, open container): 99.1%
- Color and state [1, 5]: Off-white solid
- Crystal form [1, 5]: Did not change
- Purity % [1, 5]: 98.5%
- Color and state [1, 6]: Off-white solid
- Crystal form [1, 6]: Did not change
- Purity % [1, 6]: 97.0%
- Color and state ([1]; 75% RH, 5 days, open container): Off-white solid
- Crystal form ([1]; 75% RH, 5 days, open container): Did not change
- Purity % ([1]; 75% RH, 5 days, open container): 99.8%
- Color and state [1, 7]: Off-white solid
- Crystal form [1, 7]: Did not change
- Purity % [1, 7]: 99.7%
- Color and state [1, 8]: Off-white solid
- Crystal form [1, 8]: Did not change
- Purity % [1, 8]: 99.7%
- Color and state [1, 9]: Off-white solid
- Crystal form [1, 9]: Did not change
- Purity % [1, 9]: 99.8%
- Color and state [1, 10]: Off-white solid
- Crystal form [1, 10]: Did not change
- Purity % [1, 10]: 99.7%
- Color and state [1, 11]: Off-white solid
- Crystal form [1, 11]: Did not change
- Purity % [1, 11]: 99.7%
- Color and state ([1]; Initial, 0 days): Off-white solid
- Crystal form ([1]; Initial, 0 days): Crystal form K
- Purity % ([1]; Initial, 0 days): 99.8%
- Physical and chemical properties (conclusion of influencing factor experiments) [1]: good physical and chemical properties
- Color and state [1, 12]: Off-white solid
- Crystal form [1, 12]: Did not change
- Purity % [1, 12]: 99.3%
- Color and state [1, 13]: Off-white solid
- Crystal form [1, 13]: Did not change
- Purity % [1, 13]: 98.9%
- Color and state [1, 14]: Off-white solid
- Crystal form [1, 14]: Did not change
- Purity % [1, 14]: 97.9%
- Purity % 1 month ([2]; 25° C./60% RH): 99.7%
- Purity % 2 months ([2]; 25° C./60% RH): 99.8%
- Purity % 6 months ([2]; 25° C./60% RH): 99.7%
- Purity % Initial ([2]; 25° C./60% RH): 99.8%
- Purity % 1 month ([2]; 40° C./75% RH): 99.7%
- Purity % 2 months ([2]; 40° C./75% RH): 99.7%
- Purity % 6 months ([2]; 40° C./75% RH): 99.4%
- Purity % Initial ([2]; 40° C./75% RH): 99.8%

SMILES: CCc1c(F)ccc2cc(O)cc(-c3nc4c5c(nc(OC[C@@]67CCCN6C[C@H](F)C7)nc5c3F)N3C[C@H]5CC[C@H](N5)[C@H]3CO4)c12 [Crystal form C, 5-Ethyl-6-fluoro-4-((5aS,6S,9R)-1-fluoro-12-(((2R,7aS)-2-fluorotetrahydro-1H-pyrrolizin-7a(5H)-yl)methoxy)-5a,6,7,8,9,10-hexahydro-5H-4-oxa-3,10a,11,13,14-pentaaza-6,9-methanonaphtho[1,8-ab]heptalen-2-yl)naphthalen-2-ol]
- Color and state ([1]; 40° C., 5 days, open container): Off-white solid
- Crystal form ([1]; 40° C., 5 days, open container): Did not change
- Purity % ([1]; 40° C., 5 days, open container): 99.3%
- Color and state [1, 3]: Off-white solid
- Crystal form [1, 3]: Did not change
- Purity % [1, 3]: 99.3%
- Color and state [1, 4]: Off-white solid
- Crystal form [1, 4]: Did not change
- Purity % [1, 4]: 98.5%
- Color and state ([1]; 60° C., 5 days, open container): Off-white solid
- Crystal form ([1]; 60° C., 5 days, open container): Did not change
- Purity % ([1]; 60° C., 5 days, open container): 99.0%
- Color and state [1, 5]: Off-white solid
- Crystal form [1, 5]: Did not change
- Purity % [1, 5]: 99.0%
- Color and state [1, 6]: Off-white solid
- Crystal form [1, 6]: Did not change
- Purity % [1, 6]: 97.9%
- Color and state ([1]; 75% RH, 5 days, open container): Off-white solid
- Crystal form ([1]; 75% RH, 5 days, open container): Did not change
- Purity % ([1]; 75% RH, 5 days, open container): 99.6%
- Color and state [1, 7]: Off-white solid
- Crystal form [1, 7]: Did not change
- Purity % [1, 7]: 99.6%
- Color and state [1, 8]: Off-white solid
- Crystal form [1, 8]: Did not change
- Purity % [1, 8]: 99.5%
- Color and state [1, 9]: Off-white solid
- Crystal form [1, 9]: Did not change
- Purity % [1, 9]: 99.6%
- Color and state [1, 10]: Off-white solid
- Crystal form [1, 10]: Did not change
- Purity % [1, 10]: 99.6%
- Color and state [1, 11]: Off-white solid
- Crystal form [1, 11]: Did not change
- Purity % [1, 11]: 99.4%
- Color and state ([1]; Initial, 0 days): Off-white solid
- Purity % ([1]; Initial, 0 days): 99.7%
- Physical and chemical properties (conclusion of influencing factor experiments) [1]: good physical and chemical properties
- Color and state [1, 12]: Off-white solid
- Crystal form [1, 12]: Did not change
- Purity % [1, 12]: 99.2%
- Color and state [1, 13]: Off-white solid
- Crystal form [1, 13]: Did not change
- Purity % [1, 13]: 98.7%
- Color and state [1, 14]: Pale yellow solid
- Crystal form [1, 14]: Did not change
- Purity % [1, 14]: 97.9%
- Purity % 1 month ([2]; 25° C./60% RH): 99.7%
- Purity % 2 months ([2]; 25° C./60% RH): 99.6%
- Purity % 3 months ([2]; 25° C./60% RH): 99.6%
- Purity % Initial ([2]; 25° C./60% RH): 99.7%
- Purity % 1 month ([2]; 40° C./75% RH): 99.5%
- Purity % 2 months ([2]; 40° C./75% RH): 99.4%
- Purity % 3 months ([2]; 40° C./75% RH): 99.2%
- Purity % Initial ([2]; 40° C./75% RH): 99.7%
